Measured values reported in ChEMBL document CHEMBL6178021, “Optimization of Tambjamines Active against Multiple Stages of Malaria Parasites” (J Med Chem, 2025).
Converted amounts (≈) assume the structure as drawn.

How the values were obtained:
[1] = in vitro; details: mouse, liver microsomes
[2] = test system: Plasmodium falciparum; assay: Antiplasmodial activity against asexual blood-stage Plasmodium falciparum Tm90-C2B using 2% haematocrit and 0.2% parasitemia assessed as reduction in fluorescence measured after 72 hrs by Malaria SYBR Green I-based Fluorescence (MSF) assay; type: functional, organism-based
[3] = test system: MDR1 (human); assay: Apparent permeability across apical to basolateral side in MDCK transfected with human MDR1 cells incubated for 1 hr by LC-MS analysis; details: dog, MDCK-MDR1
[4] = Solubility of the compound in potassium phosphate buffer at pH 7.4 by UV-vis spectroscopy; details: buffer
[5] = Metabolic stability in human liver microsomes assessed as half life measured up to 60 mins by LC/MS analysis; type: ADME, Microsome
[6] = test system: Plasmodium falciparum; assay: microbe, parasite or virus in culture; details: D6, 72 h
Description: Antiplasmodial activity against asexual blood-stage Plasmodium falciparum D6 using 2% haematocrit and 0.2% parasitemia assessed as reduction in fluorescence measured after 72 hrs by Malaria SYBR Green I-based Fluorescence (MSF) assay

[7] = test system: HepG2; assay: Cytotoxicity against human HepG2 cells assessed as cell viability measured after 48 hrs by MTT assay; type: toxicity, cell-based; details: hepg2
[8] = test system: Plasmodium yoelii; assay: Antimalarial activity against erythrocytic Plasmodium yoelii MRA-428 infected in CF1 mouse assessed as reduction in parasitemia at 10 mg/kg, po once daily for 4 days measured on day 5; type: functional; set-up: scale not given: the % may be the effect or the level left; details: time 4 day
[9] = in vitro; details: human, liver microsomes
[10] = test system: MDR1 (human); assay: Apparent permeability across basolateral to apical side in MDCK transfected with human MDR1 cells incubated for 1 hr by LC-MS analysis; details: dog, MDCK-MDR1
[11] = Metabolic stability in mouse liver microsomes assessed as half life measured up to 60 mins by LC/MS analysis; type: ADME, Microsome
[12] = test system: Plasmodium falciparum; assay: microbe, parasite or virus in culture; details: Dd2, 72 h
Description: Antiplasmodial activity against asexual blood-stage Plasmodium falciparum Dd2 using 2% haematocrit and 0.2% parasitemia assessed as reduction in fluorescence measured after 72 hrs by Malaria SYBR Green I-based Fluorescence (MSF) assay

[13] = test system: Plasmodium yoelii; assay: Antimalarial activity against erythrocytic Plasmodium yoelii MRA-428 infected in CF1 mouse assessed as reduction in parasitemia at 25 mg/kg, po once daily for 4 days measured on day 5; type: functional; set-up: scale not given: the % may be the effect or the level left; details: time 4 day
[14] = test system: Plasmodium yoelii; assay: Antimalarial activity against erythrocytic Plasmodium yoelii MRA-428 infected in CF1 mouse assessed as reduction in parasitemia at 50 mg/kg, po once daily for 4 days measured on day 5; type: functional; set-up: scale not given: the % may be the effect or the level left; details: time 4 day
[15] = test system: Plasmodium yoelii; assay: Antimalarial activity against erythrocytic Plasmodium yoelii MRA-428 infected in CF1 mouse assessed as cured mouse at 50 mg/kg, po once daily for 4 days measured on day 28 day; type: functional, organism-based; details: time 4.0 day
[16] = test system: Plasmodium yoelii; assay: Antimalarial activity against erythrocytic Plasmodium yoelii MRA-428 infected in CF1 mouse assessed as cured mouse at 25 mg/kg, po once daily for 4 days measured on day 28 day; type: functional, organism-based; details: time 4.0 day

SMILES	microsomal CLint at 1 h [1]	IC50 [2]	Papp A→B at 1 h [3]	solubility [4]	half-life [5]	IC50 [6]	IC50 [7]	Activity [8]	microsomal CLint at 1 h [9]	Papp B→A at 1 h [10]	half-life [11]	IC50 [12]	Activity [13]	Activity [14]	Activity [15]	Activity [16]
COc1ccc(Cc2ccc(C3=N/C(=C\NC4CCCCC4)C4=C3OCCO4)[nH]2)cc1	16.2 µL/min/mg	9.6 nM	0.002 ×10⁻⁶ cm/s	16.4 µM (≈ 6.88 µg/mL)	> 60 min	6.08 nM	1550 nM	5.01%	18.1 µL/min/mg	0.051 ×10⁻⁶ cm/s	> 60 min	12.6 nM	31.2%			
CCc1ccc(C2=N/C(=C\NC3CCCCCC3)C(OC)=C2OC)[nH]1	37.9 µL/min/mg	1.41 nM	0.059 ×10⁻⁶ cm/s	56.1 µM (≈ 19.3 µg/mL)	> 60 min	3.69 nM	11000 nM	13.5%	12.6 µL/min/mg	0.16 ×10⁻⁶ cm/s	36.6 min	4.97 nM	59.6%			
COC1=C(OC)/C(=C/NC2CCCCC2)N=C1c1ccc[nH]1	74.1 µL/min/mg	83.3 nM	4.3 ×10⁻⁶ cm/s	478 µM (≈ 144 µg/mL)	14.6 min	66.8 nM	41600 nM	0%	94.9 µL/min/mg	4.8 ×10⁻⁶ cm/s	18.7 min	73.5 nM	70.8%			
CCc1ccc(C2=N/C(=C\NC3CCCCCC3)C3=C2OCCO3)[nH]1	48.2 µL/min/mg	3.34 nM	0.042 ×10⁻⁶ cm/s	52.1 µM (≈ 17.8 µg/mL)	> 60 min	7.58 nM	1780 nM	34.2%	20.6 µL/min/mg	0.47 ×10⁻⁶ cm/s	28.7 min	16.7 nM	67.4%			
CCC1=C(CC)/C(=C/NC2CCCCCCC2)N=C1c1ccc(Br)[nH]1	10.4 µL/min/mg	75.2 nM	0.006 ×10⁻⁶ cm/s	6.28 µM (≈ 2.54 µg/mL)	> 60 min	53.4 nM	9480 nM	20.4%	9.19 µL/min/mg	0.066 ×10⁻⁶ cm/s	> 60 min	124 nM	42.3%			
CCC1=C(C)/C(=C/NC2CCCCC2)N=C1c1ccc(C)[nH]1	43.7 µL/min/mg	32.3 nM	0.33 ×10⁻⁶ cm/s	72.5 µM (≈ 21.6 µg/mL)	> 60 min	27.4 nM	8090 nM	80.3%	6.07 µL/min/mg	0.099 ×10⁻⁶ cm/s	31.7 min	15.7 nM	100%	100%	Not active; None Of The Mouse Cured Out Of Four Tested	Not active; None Of The Mouse Cured Out Of Four Tested
CCC1=C(C)/C(=C/NC2CCCCCCC2)N=C1c1ccc(CC)[nH]1	17.5 µL/min/mg	2.98 nM	0.095 ×10⁻⁶ cm/s	10 µM (≈ 3.4 µg/mL)	41.4 min	7.39 nM	4280 nM	61.9%	33.4 µL/min/mg		> 60 min	9.01 nM	100%	100%	Not active; None Of The Mouse Cured Out Of Four Tested	Not active; None Of The Mouse Cured Out Of Four Tested
C(/NC1CCCCC1)=C1/N=C(c2ccc[nH]2)C2=C1CCCC2	58.2 µL/min/mg	16.6 nM	0.27 ×10⁻⁶ cm/s	294 µM (≈ 86.9 µg/mL)				88.8%	51.9 µL/min/mg	0.092 ×10⁻⁶ cm/s	23.8 min	13.2 nM	100%	100%	Not active; None Of The Mouse Cured Out Of Four Tested	Not active; None Of The Mouse Cured Out Of Four Tested
CCc1ccc(C2=N/C(=C\NC3CCCCCCC3)C(C)=C2C)[nH]1		4.28 nM	0.022 ×10⁻⁶ cm/s	57.7 µM (≈ 18.8 µg/mL)	> 60 min	5.05 nM	2020 nM				> 60 min	3.97 nM	97%	100%		
